Laboratory results reported in ChEMBL document CHEMBL4428049, “Design and synthesis of aminothiazole modulators of the gamma-secretase enzyme” (Bioorg Med Chem Lett, 2016).
Converted amounts (≈) assume the structure as drawn.

Assays:
Gamma-secretase = assay: Modulation of gamma-secretase in human SH-SY5Y cells overexpressing wild-type human APP751 assessed as inhibition of Abeta42 level after 24 hrs by ELISA; format: cell-based
[1] = Kinetic solubility in PBS buffer at pH 7.4 by UV/vis absorbance analysis; format: physicochemical; conditions: read-out: Kinetic_solubility

What does the source list for `Cc1cn(-c2ccc(-c3csc(Nc4c5c(nn4C4CCN(C)CC4)CCCC5)n3)cc2F)cn1`?
IC50 (Gamma-secretase): > 1000 nM; solubility kinetic [1]: 2.8 µM (≈ 1.38 µg/mL)

What does the source list for `Cc1cn(-c2ccc(-c3csc(Nc4c5c(nn4CCCN4CCOCC4)CCCC5)n3)cc2F)cn1`?
IC50 (Gamma-secretase): 270 nM; solubility kinetic [1]: 16 µM (≈ 8.35 µg/mL)

Which results are given for `Cc1cn(-c2ccc(-c3csc(Nc4cc(C(C)(C)C)nn4CC(F)(F)F)n3)cc2F)cn1`?
IC50 (Gamma-secretase): 87 nM; solubility kinetic [1]: < 1.6 µM

For `Cc1cn(-c2ccc(-c3csc(Nc4c5c(nn4CCN4CCOCC4)CCCC5)n3)cc2F)cn1`, which IC50 (Gamma-secretase) is on record?
Its IC50 is greater than 1000 nM.

What does the source list for `CCn1nc(C2(C)CC2)cc1Nc1nc(-c2ccc(-n3cnc(C)c3)c(F)c2)cs1`?
IC50 (Gamma-secretase): 67 nM; solubility kinetic [1]: < 1.6 µM

With `Cc1cn(-c2ccc(-c3csc(Nc4c5c(nn4C(C)C)CCCC5)n3)cc2F)cn1` as the compound, how does the IC50 (Gamma-secretase) read?
The IC50 was 195 nM.

Which IC50 (Gamma-secretase) does the source give for `CCn1nc2c(c1Nc1nc(-c3ccc(-n4cnc(C)c4)c(F)c3)cs1)CCC2(C)C` here?
The IC50 was 62 nM.

What about the solubility kinetic [1] of the same compound?
The solubility kinetic was 2.1 µM (≈ 0.917 µg/mL).

What does the source list for `CCCn1nc(C(C)(C)C)cc1Nc1nc(-c2ccc(-n3cnc(C)c3)c(F)c2)cs1`?
IC50 (Gamma-secretase): 86 nM; solubility kinetic [1]: < 1.6 µM

With `Cc1cn(-c2ccc(-c3csc(Nc4[nH]nc5c4CCCC5)n3)cc2F)cn1` as the compound, how does the IC50 (Gamma-secretase) read?
Its IC50 is greater than 1000 nM.

For `Cc1cn(-c2ccc(-c3csc(Nc4c5c(nn4C(C)C)CCC5)n3)cc2F)cn1`, which IC50 (Gamma-secretase) is on record?
The IC50 was 66 nM.

What about the solubility kinetic [1] of the same compound?
The solubility kinetic was less than 1.6 µM.

Which IC50 (Gamma-secretase) does the source give for `Cc1cn(-c2ccc(-c3csc(Nc4c5c(nn4C4CCOC4)CCCC5)n3)cc2F)cn1` (stereo not given) here?
Its IC50 is 289 nM.

For `Cc1cn(-c2ccc(-c3csc(Nc4cc(C(C)(C)C)nn4C(C)(C)C)n3)cc2F)cn1`, which IC50 (Gamma-secretase) is on record?
The IC50 was 85 nM.

What about the solubility kinetic [1] of the same compound?
Its solubility kinetic is 2 µM (≈ 0.905 µg/mL).

Which IC50 (Gamma-secretase) does the source give for `Cc1cn(-c2ccc(-c3csc(Nc4c5c(nn4C)CCCC5)n3)cc2F)cn1` here?
The IC50 was 208 nM.

For `Cc1cn(-c2ccc(-c3csc(Nc4c5c(nn4CC(F)(F)F)CCC5)n3)cc2F)cn1`, which IC50 (Gamma-secretase) is on record?
Its IC50 is 94 nM.

What about the solubility kinetic [1] of the same compound?
Its solubility kinetic is less than 1.6 µM.

With `Cc1cn(-c2ccc(-c3csc(Nc4c5c(nn4C4CCC4)CCC5)n3)cc2F)cn1` as the compound, how does the IC50 (Gamma-secretase) read?
The IC50 was 92 nM.

And the solubility kinetic [1]?
The solubility kinetic was less than 1.6 µM.

With `Cc1cn(-c2ccc(-c3csc(Nc4c5c(nn4CCCO)CCCC5)n3)cc2F)cn1` as the compound, how does the IC50 (Gamma-secretase) read?
Its IC50 is 229 nM.

For `Cc1cn(-c2ccc(-c3csc(Nc4c5c(nn4CCF)CCCC5)n3)cc2F)cn1`, which IC50 (Gamma-secretase) is on record?
Its IC50 is 110 nM.

Which IC50 (Gamma-secretase) does the source give for `Cc1cn(-c2ccc(-c3csc(Nc4c5c(nn4CCO)CCC5)n3)cc2F)cn1` here?
The IC50 was greater than 1000 nM.

What about the solubility kinetic [1] of the same compound?
Its solubility kinetic is less than 1.6 µM.

With `CCn1nccc1Nc1nc(-c2ccc(-n3cnc(C)c3)c(F)c2)cs1` as the compound, how does the IC50 (Gamma-secretase) read?
The IC50 was greater than 1000 nM.

With `Cc1cn(-c2ccc(-c3csc(Nc4c5c(nn4C4CCOCC4)CCCC5)n3)cc2F)cn1` as the compound, how does the IC50 (Gamma-secretase) read?
The IC50 was 766 nM.

Which IC50 (Gamma-secretase) does the source give for `Cc1cn(-c2ccc(-c3csc(Nc4cc(C(F)(F)F)nn4C(C)(C)C)n3)cc2F)cn1` here?
The IC50 was 121 nM.

For `Cc1cn(-c2ccc(-c3csc(Nc4cc(C(C)(C)C)nn4C(C)C)n3)cc2F)cn1`, which IC50 (Gamma-secretase) is on record?
The IC50 was 87 nM.

With `COCCn1nc2c(c1Nc1nc(-c3ccc(-n4cnc(C)c4)c(F)c3)cs1)CCCC2` as the compound, how does the IC50 (Gamma-secretase) read?
Its IC50 is 272 nM.

And the solubility kinetic [1]?
The solubility kinetic was 2.3 µM (≈ 1.04 µg/mL).
